Key:
E. coli = E. coli capillary accumulation assay; type: cell-based, Escherichia coli
Procedure: FIGS. 3A and 3B: Results of E. coli capillary accumulation assays. The number of bacteria accumulated is plotted versus the concentration of the attractant (galactose or compounds 1-4, Scheme 1) calculated on a saccharide residue basis. (A): Results are shown for capillaries filled with buffer alone, compound 1, and compound 2 or (B): buffer alone, compound 3 and compound 4 at the indicated concentrations. The vertical line at 1 mM indicates the concentration of maximum chemotaxis for the monomeric compound 1. […] Results are the average of 3 to 6 experiments performed in duplicate and error bars represent a single standard deviation. Partial permeabilization was required to obtain chemotaxis towards 4, and was utilized for all experiments.
E. coli were subjected to concentration gradients of compounds 1-4 in capillary accumulation assays to determine the concentration at which the maximum chemotactic response is achieved and the number of bacteria that accumulate at this maximum.
Concentrations of maximum chemotaxis of 3 and 4 are 100- and 5000-fold lower, respectively, than free galactose (FIG. 3B). […]
E. coli from an overnight culture were grown in LB to OD550 0.4-0.6, washed twice with E. coli chemotaxis buffer, and then partially permeabilized. […] Data was analyzed using the Q and Students tests.

E. coli AW405 = experiment: video microscopy motion analysis of bacteria; type: cell-based, Escherichia coli; conditions: first 5-15 seconds after addition of attractant
Procedure: FIG. 2A: Results of video microscopy motion analysis experiments. Bacteria (Escherichia coli) were treated with buffer alone, galactose, or compound 1 or 3 (Scheme 1) at the indicated saccharide concentrations. The results represent the average from at least five independent experiments performed in triplicate. Error bars represent the deviation between per-second averages during the ten second interval.
Ligands functionalized with galactose such as monovalent ligand 1 and multivalent ligand 3, also serve as attractants in vivo. […] To observe the effects of synthetic ligands on tumbling frequency, E. coli were treated with galactose or galactose-bearing ligands, and bacterial motion was recorded and analyzed using the method of Sager et al.. The tumbling frequency was assessed by averaging the mean angular velocity of the paths obtained in the first 5-15 seconds after addition of attractant (FIG. 2A). […]
Partially permeabilized bacteria (25 μM EDTA for 3 min. at room temperature, then quench with 50 μM CaCl2) at an OD550 of 0.1 were placed under a cover slip supported by additional cover slips in the method of Sager et al.. […] The bacterial motion at 28° C. was recorded, and the paths were analyzed using the ExpertVision system. Paths derived from the first 5 to 15 seconds following the introduction of attractant were analyzed. […] Data were analyzed using the Q and Students tests.

[1] = molecular target: glucose/galactose-binding protein (GGBP) (Escherichia coli, UniProt P0AEE5); experiment: in vitro binding assay with purified GGBP
Sequence of glucose/galactose-binding protein (GGBP) (P0AEE5 24-332 limits assumed): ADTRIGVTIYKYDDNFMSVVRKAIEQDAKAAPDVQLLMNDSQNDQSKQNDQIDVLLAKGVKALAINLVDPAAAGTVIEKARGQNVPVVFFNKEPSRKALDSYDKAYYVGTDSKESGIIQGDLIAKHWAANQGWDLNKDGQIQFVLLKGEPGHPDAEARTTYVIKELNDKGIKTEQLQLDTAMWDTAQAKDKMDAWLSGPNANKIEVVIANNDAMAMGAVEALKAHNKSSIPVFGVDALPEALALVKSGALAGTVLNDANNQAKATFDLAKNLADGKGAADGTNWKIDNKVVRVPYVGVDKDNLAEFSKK
Text: The molecular events leading to bacterial chemotaxis have been well studied, and the process has served as a general model for receptor-mediated responses. During chemotaxis in Escherichia coli, chemoattractants, such as sugars and amino acids, and chemorepellents are recognized by specific receptors at the bacterial plasma membrane. For these investigations of multivalent ligand activity, galactose was selected as a model chemoattractant. […] For galactose-mediated signaling, the saccharide must bind to the soluble periplasmic glucose/galactose-binding protein (GGBP), which, in turn, interacts with the galactose-sensing chemoreceptor, Trg. Galactose-GGBP binding to Trg initiates a signaling pathway that results in reversal of the direction of flagellar spin, allowing the bacteria to swim towards the nutrient.
Galactose-bearing ligands 1-4 of varying defined valencies were generated using ROMP methods (Scheme 1). The galactose residues in the multivalent ligands are tethered to the molecular scaffold (polymer backbone) via a short linker.

## O=C(NCCOC1OC(CO)C(O)C(O)C1O)C1C[C@@H]2C=CC1C2 (stereo partly shown) [Compound 1]
E. coli; ggbp (AW550 and AW543) or trg (AW701) E. coli mutants
  chemoattractant activity in mutants: not a chemoattractant
E. coli; saccharide (galactose) residue basis, partially permeabilized E. coli, 30° C., 60 min
  concentration of maximum chemotaxis: 1 mM
E. coli AW405
  mean angular velocity (tumbling frequency) after addition of attractant: produced similar effects to that of the free chemoattractant
[1]
  interaction with purified GGBP compared with galactose: at least as favorable as that of galactose
